Consider two compounds from ChEMBL document CHEMBL1145498, “A systematic interaction map of validated kinase inhibitors with Ser/Thr kinases” (Proc Natl Acad Sci U S A, 2007).

Test [1] has as its target Calcium/calmodulin-dependent protein kinase kinase 2 (Homo sapiens, UniProt Q96RR4).
The target in test [2] is T1, Mitogen-activated protein kinase kinase kinase 5 (Homo sapiens) (UniProt Q99683).
T1 sequence (whole entry): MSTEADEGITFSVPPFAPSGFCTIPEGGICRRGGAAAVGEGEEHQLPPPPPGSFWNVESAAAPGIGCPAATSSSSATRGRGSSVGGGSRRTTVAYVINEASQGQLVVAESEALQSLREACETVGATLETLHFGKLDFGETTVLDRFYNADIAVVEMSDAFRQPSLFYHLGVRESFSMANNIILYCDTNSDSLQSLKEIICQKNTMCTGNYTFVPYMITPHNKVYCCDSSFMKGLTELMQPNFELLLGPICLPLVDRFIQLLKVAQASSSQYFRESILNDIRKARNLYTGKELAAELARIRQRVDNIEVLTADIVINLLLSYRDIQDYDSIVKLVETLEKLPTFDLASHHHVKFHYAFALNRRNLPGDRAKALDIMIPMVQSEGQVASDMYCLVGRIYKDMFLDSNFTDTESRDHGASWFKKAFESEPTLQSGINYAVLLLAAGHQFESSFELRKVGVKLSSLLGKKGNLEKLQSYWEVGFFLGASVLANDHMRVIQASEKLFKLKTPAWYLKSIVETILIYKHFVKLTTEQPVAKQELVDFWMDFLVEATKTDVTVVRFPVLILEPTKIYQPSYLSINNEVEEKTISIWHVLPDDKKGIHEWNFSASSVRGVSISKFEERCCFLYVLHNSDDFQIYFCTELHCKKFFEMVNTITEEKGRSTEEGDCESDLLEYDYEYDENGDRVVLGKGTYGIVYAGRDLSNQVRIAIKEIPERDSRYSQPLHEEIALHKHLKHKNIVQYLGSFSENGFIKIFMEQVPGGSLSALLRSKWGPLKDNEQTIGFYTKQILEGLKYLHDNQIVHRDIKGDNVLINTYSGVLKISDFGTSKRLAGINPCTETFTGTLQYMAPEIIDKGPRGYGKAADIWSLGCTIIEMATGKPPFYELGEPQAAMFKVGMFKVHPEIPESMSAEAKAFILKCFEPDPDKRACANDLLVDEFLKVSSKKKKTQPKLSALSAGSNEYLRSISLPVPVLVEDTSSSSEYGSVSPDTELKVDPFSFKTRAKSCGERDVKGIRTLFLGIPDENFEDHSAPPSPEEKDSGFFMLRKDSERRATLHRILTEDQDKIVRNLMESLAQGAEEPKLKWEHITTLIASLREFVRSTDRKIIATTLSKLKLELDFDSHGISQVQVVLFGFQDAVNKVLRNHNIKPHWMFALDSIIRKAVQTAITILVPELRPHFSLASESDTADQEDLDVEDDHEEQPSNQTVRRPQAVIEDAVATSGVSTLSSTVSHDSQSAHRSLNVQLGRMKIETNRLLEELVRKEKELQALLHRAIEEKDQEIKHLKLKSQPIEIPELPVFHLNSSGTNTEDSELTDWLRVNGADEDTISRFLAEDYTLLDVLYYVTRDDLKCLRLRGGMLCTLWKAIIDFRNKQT

The target in test [3] is Serine/threonine-protein kinase pim-3 (Homo sapiens) (UniProt Q86V86).
The target in test [4] is T2, Calcium/calmodulin-dependent protein kinase type IV (Homo sapiens) (UniProt Q16566).
T2 sequence (whole entry): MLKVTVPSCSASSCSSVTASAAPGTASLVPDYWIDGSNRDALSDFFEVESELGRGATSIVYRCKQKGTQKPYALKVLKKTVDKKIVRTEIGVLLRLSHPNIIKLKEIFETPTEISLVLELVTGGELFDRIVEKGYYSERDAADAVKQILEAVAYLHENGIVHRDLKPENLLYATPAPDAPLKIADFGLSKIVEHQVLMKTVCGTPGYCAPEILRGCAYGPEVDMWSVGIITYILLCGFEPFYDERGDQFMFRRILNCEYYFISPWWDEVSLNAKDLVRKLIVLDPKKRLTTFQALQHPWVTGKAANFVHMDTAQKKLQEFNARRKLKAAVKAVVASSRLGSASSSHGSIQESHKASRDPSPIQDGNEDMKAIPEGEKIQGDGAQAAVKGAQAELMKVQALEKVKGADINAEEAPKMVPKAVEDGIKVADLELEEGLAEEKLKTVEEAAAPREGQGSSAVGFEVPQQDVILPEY

For test [5], the target named is Ribosomal protein S6 kinase alpha-3 (Homo sapiens) (UniProt P51812).
Sequence of Ribosomal protein S6 kinase alpha-3 (Homo sapiens) (P51812 whole entry, canonical isoform): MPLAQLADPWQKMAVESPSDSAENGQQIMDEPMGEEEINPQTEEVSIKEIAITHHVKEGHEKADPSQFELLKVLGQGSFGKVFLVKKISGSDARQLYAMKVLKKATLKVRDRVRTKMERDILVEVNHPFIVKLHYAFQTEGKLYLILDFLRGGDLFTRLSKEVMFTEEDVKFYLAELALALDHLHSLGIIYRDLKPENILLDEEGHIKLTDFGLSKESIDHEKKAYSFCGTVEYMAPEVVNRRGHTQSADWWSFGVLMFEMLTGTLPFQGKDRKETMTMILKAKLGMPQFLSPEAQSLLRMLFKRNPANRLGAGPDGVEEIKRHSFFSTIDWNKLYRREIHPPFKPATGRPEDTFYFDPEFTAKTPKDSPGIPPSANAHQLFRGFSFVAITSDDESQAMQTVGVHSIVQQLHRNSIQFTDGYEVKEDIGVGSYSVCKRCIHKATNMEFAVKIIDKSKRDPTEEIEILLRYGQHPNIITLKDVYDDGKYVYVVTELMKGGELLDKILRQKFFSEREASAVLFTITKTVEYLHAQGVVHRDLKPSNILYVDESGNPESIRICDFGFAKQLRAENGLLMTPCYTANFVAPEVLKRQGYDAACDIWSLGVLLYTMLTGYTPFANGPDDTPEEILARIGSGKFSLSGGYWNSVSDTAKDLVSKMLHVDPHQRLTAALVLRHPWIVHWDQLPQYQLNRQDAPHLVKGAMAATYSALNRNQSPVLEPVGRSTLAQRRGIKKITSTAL
The target of test [6] is Casein kinase I isoform gamma-1 (Homo sapiens) (UniProt Q9HCP0).
Sequence of Casein kinase I isoform gamma-1 (Homo sapiens) (Q9HCP0 whole entry, looked up, canonical isoform): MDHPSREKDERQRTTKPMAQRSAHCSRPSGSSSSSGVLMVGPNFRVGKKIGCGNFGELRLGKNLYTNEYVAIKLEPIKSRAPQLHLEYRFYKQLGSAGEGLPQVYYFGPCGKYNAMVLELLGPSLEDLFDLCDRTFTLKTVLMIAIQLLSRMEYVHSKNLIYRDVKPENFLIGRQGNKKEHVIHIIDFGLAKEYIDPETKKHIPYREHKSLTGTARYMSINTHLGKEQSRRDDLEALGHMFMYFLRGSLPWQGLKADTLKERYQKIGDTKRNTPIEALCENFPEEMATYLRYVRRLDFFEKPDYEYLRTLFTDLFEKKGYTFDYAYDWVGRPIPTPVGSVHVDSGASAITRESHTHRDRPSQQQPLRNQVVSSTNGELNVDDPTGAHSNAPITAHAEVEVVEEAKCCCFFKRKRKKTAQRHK
The target of test [7] is Serine/threonine-protein kinase 26 (Homo sapiens) (UniProt Q9P289).
Sequence of Serine/threonine-protein kinase 26 (Homo sapiens) (Q9P289 2-416 limits assumed): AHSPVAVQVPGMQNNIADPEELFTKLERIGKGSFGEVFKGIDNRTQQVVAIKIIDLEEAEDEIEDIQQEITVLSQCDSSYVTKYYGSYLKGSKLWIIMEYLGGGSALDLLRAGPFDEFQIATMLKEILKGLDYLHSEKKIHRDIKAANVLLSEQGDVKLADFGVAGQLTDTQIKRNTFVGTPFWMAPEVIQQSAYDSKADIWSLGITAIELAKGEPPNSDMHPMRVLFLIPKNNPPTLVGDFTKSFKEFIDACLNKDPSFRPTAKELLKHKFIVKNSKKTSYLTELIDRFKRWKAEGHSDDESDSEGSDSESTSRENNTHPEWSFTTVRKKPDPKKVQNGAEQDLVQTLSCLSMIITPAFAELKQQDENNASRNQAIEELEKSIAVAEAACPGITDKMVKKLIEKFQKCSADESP
Test [8] deals with TRAF2 and NCK-interacting protein kinase (Homo sapiens) (UniProt Q9UKE5).
Sequence of TRAF2 and NCK-interacting protein kinase (Homo sapiens) (Q9UKE5 whole entry, looked up): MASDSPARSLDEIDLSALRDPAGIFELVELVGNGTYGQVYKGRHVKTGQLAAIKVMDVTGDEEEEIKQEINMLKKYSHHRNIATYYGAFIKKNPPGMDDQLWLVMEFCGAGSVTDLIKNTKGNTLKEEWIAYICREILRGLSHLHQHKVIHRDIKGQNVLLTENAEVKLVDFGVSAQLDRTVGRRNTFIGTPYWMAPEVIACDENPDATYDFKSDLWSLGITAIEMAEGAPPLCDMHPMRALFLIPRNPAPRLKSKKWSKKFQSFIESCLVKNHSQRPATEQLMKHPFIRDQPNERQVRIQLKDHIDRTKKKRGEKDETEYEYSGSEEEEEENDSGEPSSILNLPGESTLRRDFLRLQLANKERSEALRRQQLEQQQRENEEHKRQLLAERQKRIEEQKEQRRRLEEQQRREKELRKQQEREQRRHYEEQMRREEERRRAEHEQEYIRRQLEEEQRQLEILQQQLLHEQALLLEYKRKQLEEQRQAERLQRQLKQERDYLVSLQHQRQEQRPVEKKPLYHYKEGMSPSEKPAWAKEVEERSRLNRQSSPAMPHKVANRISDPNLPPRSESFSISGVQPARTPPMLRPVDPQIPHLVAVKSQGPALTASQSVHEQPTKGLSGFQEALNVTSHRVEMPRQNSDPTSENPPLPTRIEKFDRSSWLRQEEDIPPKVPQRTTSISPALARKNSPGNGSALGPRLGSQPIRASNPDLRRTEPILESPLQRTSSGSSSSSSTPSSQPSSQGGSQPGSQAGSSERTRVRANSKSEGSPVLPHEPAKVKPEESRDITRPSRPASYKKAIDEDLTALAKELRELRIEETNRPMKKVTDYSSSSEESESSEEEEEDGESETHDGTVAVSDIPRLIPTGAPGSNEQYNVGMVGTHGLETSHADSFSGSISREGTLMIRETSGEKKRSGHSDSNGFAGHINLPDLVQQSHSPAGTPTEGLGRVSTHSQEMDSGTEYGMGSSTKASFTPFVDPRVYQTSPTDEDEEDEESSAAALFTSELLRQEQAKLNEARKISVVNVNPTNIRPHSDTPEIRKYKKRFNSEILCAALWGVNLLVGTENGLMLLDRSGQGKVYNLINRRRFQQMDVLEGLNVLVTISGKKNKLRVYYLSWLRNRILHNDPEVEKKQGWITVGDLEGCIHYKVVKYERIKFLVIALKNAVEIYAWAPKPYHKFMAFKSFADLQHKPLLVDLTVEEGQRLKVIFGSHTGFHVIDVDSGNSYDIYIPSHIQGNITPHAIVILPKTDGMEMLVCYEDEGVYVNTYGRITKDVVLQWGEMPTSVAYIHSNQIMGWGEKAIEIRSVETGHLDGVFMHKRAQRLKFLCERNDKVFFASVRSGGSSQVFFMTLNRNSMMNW
The target in test [9] is Serine/threonine-protein kinase PAK 4 (Homo sapiens) (UniProt O96013).
Sequence of Serine/threonine-protein kinase PAK 4 (Homo sapiens) (O96013 whole entry, looked up): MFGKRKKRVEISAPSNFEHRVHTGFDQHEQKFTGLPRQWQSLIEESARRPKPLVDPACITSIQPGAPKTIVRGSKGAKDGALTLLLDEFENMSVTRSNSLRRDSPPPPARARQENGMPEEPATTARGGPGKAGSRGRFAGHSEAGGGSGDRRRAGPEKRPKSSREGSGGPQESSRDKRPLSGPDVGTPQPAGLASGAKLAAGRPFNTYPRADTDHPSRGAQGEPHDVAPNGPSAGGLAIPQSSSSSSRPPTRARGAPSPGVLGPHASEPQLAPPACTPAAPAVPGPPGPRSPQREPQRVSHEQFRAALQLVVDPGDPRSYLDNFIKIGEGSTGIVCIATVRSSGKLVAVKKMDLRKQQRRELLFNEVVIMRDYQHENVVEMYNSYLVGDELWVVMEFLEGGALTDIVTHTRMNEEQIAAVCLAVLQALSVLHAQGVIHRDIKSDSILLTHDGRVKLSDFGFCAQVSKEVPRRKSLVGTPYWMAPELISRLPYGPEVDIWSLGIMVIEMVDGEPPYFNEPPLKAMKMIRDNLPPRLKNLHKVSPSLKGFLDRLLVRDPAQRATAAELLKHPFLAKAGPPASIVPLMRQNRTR
Test [10] addresses Cyclin-dependent kinase 16 (Homo sapiens) (UniProt Q00536).
Test [11] addresses T3, Myotonin-protein kinase (Homo sapiens) (UniProt Q09013).
T3 sequence (whole entry): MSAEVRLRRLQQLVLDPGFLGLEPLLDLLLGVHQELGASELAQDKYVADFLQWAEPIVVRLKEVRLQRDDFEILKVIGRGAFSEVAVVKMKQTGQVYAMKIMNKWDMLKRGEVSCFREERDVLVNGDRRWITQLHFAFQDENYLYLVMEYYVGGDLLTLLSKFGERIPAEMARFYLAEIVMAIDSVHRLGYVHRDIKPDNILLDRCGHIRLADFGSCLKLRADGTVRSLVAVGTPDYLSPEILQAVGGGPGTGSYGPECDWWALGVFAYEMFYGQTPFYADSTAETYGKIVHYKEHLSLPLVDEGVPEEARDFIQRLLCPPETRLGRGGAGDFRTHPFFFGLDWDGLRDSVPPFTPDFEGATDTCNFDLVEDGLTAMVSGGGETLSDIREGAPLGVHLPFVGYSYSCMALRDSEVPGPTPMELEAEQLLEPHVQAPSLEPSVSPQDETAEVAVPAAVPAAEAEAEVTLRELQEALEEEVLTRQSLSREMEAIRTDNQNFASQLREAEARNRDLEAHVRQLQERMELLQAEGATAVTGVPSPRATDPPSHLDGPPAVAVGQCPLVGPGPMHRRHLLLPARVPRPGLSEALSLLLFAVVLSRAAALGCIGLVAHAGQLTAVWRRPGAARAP

Sequence of Calcium/calmodulin-dependent protein kinase kinase 2 (Q96RR4 2-588 limits assumed): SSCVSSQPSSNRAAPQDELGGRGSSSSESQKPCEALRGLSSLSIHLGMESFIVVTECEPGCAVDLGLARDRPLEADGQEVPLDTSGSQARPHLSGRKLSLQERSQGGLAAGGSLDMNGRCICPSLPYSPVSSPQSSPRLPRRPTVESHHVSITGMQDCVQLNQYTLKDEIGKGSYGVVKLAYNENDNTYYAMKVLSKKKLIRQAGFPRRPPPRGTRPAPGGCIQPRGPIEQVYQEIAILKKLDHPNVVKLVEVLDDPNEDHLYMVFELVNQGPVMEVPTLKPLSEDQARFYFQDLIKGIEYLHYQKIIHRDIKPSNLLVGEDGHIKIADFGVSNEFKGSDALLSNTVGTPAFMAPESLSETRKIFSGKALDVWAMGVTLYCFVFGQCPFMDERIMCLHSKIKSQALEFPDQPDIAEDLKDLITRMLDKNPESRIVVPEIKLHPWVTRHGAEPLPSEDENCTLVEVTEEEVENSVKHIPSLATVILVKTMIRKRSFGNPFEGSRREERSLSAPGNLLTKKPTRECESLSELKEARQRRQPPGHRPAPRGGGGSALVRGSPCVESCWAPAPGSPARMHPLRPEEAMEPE
Sequence of Cyclin-dependent kinase 16 (Homo sapiens) (Q00536 whole entry): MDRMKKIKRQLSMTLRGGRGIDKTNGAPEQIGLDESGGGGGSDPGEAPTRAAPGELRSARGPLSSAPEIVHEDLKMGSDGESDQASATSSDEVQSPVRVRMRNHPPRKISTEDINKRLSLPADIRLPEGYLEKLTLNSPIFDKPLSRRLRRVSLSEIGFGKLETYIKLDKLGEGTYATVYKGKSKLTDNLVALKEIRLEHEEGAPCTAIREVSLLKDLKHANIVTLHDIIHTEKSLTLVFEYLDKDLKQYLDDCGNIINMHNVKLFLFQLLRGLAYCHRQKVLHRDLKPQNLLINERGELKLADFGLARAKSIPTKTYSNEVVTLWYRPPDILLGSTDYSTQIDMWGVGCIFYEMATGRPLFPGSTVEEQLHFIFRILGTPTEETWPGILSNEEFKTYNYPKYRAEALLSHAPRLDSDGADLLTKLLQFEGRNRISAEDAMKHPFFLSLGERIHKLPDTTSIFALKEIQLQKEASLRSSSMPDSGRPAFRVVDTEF

For orientation: ΔTm means the shift of the melting midpoint relative to a reference. For `NCCNS(=O)(=O)c1cccc2c(Cl)cccc12`, the ΔTm was 0.3 °C in [1]; 0.4 °C in test [2]; 3.2 °C in test [3]; -0.1 °C in test [4]; 0.2 °C in [5]; 0.5 °C in test [6]. The ΔTm is 0 °C in [7]; 0 °C in test [8]; 0.5 °C in [9]; -0.1 °C in test [10]; -1.1 °C in test [11].
Take `C[C@@H]1C[C@H]2O[C@@H]2/C=C\C=C\C(=O)Cc2c(Cl)c(O)cc(O)c2C(=O)O1` [RADICICOL]: the ΔTm was -0.1 °C in test [1]; -0.2 °C in test [2]; 0.5 °C in test [3]; -0.1 °C in test [4]; 0.9 °C in test [5]; 0.3 °C in test [6]. In addition, the ΔTm in test [7] was -0.2 °C; in test [8] it was -0.3 °C; in test [9] it was 1.3 °C; in [10], 0.2 °C; in test [11], -0.9 °C.
